Test results: patent US5886033A, “Use of isoxazole and crotonamide derivatives for the treatment of carcinomatous disorders” (Hoechst Aktiengesellschaft, priority 1995, dated 1999)
Where a name gives a salt, the structure may show the parent alone. Read-outs that look alike come from different tables or passages of the source.

Experiments:
[1] = test system: LoVo cells; assay: Inhibition of the proliferation of tumor cells (MTT test), LoVo; type: cell-based, human
Method: (§1) Inhibition of the proliferation of tumor cells (MTT test)
(§2) 1×10^4 cells per well are inoculated into a 96-well microtiter plate. After 24 h, the test substances are added at various concentrations. Each group consists of 4 wells, the control is only incubated with medium. After 65 h, 50 μl of MTT (3-(4,5-dimethyl-2-thiazolyl)-2,5-diphenyl-2H-tetrazolium bromide; 2.5 mg/ml in PBS) are added and, after 7 h, the supernatant is removed. The color formed by the living cells is dissolved by addition of 100 μl of dimethyl sulfoxide/well. The extinction is measured at 492 nm for each well with the aid of a Multiscan photometer 340 CC (Flow). The cell lines used are obtainable as follows from the American Type Culture Collection: HUV-EC-C is ATCC CRL 1730; A-172 is ATCC CRL 1620; L 1210 is ATCC CCL 219; LoVo is ATCC CCL 229; C 6 is ATCC CCL 107 and a rat glioblastoma cell line.
(§3) The mean value is formed from the 4 wells of a group and the IC50 values are calculated from the dose-response curve using the Software 3.0 (Erithacus Software Ltd.).

[2] = test system: A-172; assay: Inhibition of the proliferation of tumor cells (MTT test), A-172; type: cell-based, human
Method: as §1, §2, §3

[3] = test system: HUV-EC-C; assay: Inhibition of proliferation (MTT test), HUV-EC-C / HUVEC endothelial cells; type: cell-based, human
Method: as §1, §2, §3

[4] = test system: C 6; assay: Inhibition of the proliferation of tumor cells (MTT test), C 6; type: cell-based, rat
Method: as §1, §2, §3

[5] = molecular target: T1, Human DHODH (spleen) (Homo sapiens, UniProt Q02127); assay: Human DHODH (spleen) enzyme activity; type: biochemical
T1 construct: Human DHODH (spleen) enzyme activity; from tissue; host or cells: human spleen
T1 sequence (Q02127 whole entry): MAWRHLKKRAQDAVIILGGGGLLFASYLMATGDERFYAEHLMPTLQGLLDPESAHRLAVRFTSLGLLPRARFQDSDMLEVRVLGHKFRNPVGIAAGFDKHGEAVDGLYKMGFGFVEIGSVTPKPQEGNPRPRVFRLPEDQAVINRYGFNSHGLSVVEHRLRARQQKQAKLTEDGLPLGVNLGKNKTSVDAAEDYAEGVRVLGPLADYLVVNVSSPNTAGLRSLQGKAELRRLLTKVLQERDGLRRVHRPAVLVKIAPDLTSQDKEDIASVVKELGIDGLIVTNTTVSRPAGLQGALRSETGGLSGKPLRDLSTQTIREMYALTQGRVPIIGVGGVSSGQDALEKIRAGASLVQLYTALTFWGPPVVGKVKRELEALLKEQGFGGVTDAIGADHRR

[6] = test system: L1210; assay: Inhibition of the proliferation of tumor cells (MTT test), L1210; type: cell-based; settings: Table 2; L1210, leukemia (mouse)
Method: as §1, §2, §3

[7] = test system: LoVo cells; assay: MTT test on LoVo cells with added uridine; type: cell-based, human; settings: for IC50: Homo sapiens, LoVo, Table 3
Method: as §2, §3
The procedure is as in Example 6; uridine is additionally added to the batches.

[8] = test system: pyrimidine and purine nucleotides; settings: cited from earlier work
[9] = test system: in vitro cell lines; settings: Peters et al., 1987; cited from earlier work
[10] = test system: plasma uridine; settings: clinical investigations, cited from earlier work
[11] = Homo sapiens, Table 4, read-out: LoVo (tested as described in Example 6, MTT test)
[12] = Homo sapiens, A 172, Table 4, A172, read-out: A172 (tested as described in Example 6, MTT test)
[13] = Homo sapiens, HUVEC, Table 4, HUVEC, read-out: HUVEC (tested as described in Example 6, MTT test)
[14] = Rattus norvegicus, C6, Table 4, C 6, read-out: C 6 (tested as described in Example 6, MTT test)
[15] = human DHODH (spleen), read-out: DHODH IC50
[16] = Homo sapiens, Table 2, colonic carcinoma, no uridine, read-out: MTT Test IC50
[17] = Homo sapiens, A 172, Table 2, A-172, glioblastoma, read-out: MTT Test IC50
[18] = Homo sapiens, Endothelial cell, Table 2, HUV-EC-C, endothelial cell, read-out: MTT Test IC50
[19] = Rattus norvegicus, C6, Table 2, C 6, rat glioblastoma, read-out: MTT Test IC50

SMILES | IC50 [1, 11] | IC50 [2, 12] | IC50 [4, 14] | IC50 [3, 13] | further results
CC(C)=CCCC(O)=C(C#N)C(=O)Nc1ccc(C(F)(F)F)cc1 [Compound 25] | 306 µM | 95 µM | 87 µM | 301 µM | –
CC=CC=CC(O)=C(C#N)C(=O)Nc1ccc(C(F)(F)F)cc1 [Compound 26] | 146 µM | 200 µM | 24 µM | 378 µM | –
C#CCCC(O)=C(C#N)C(=O)Nc1ccc(Cl)cn1 [Compound 27] | 153 µM | 142 µM | 126 µM | > 400 µM | –
C=CCC(O)=C(C#N)C(=O)Nc1ccc(F)cc1 [Compound 22] | 149 µM | > 400 µM | 103 µM | > 400 µM | –
C=CC(O)=C(C#N)C(=O)Nc1ccc(C(F)(F)F)cc1 [Compound 9] | 400 µM | 193 µM | 21 µM | > 400 µM | –
N#CC(C(=O)Nc1ccc(C#N)cc1)=C(O)C1CC1 [Compound 2, 2-Cyano-3-cyclopropyl-3-hydroxyacrylic acid (4-cyanophenyl)amide sodium salt] | 392 µM | 169 µM | 20 µM | 360 µM | IC50 [6]: 6.1 µM; IC50 [1, 16]: 392 µM; IC50 [2, 17]: 169 µM; IC50 [3, 18]: 360 µM; IC50 [4, 19]: 20 µM; IC50 [5, 15]: 0.625 µM; IC50 ([7]; uridine 0 μM): 359 µM; IC50 ([7]; uridine 1000 μM): 560 µM
N#CC(C(=O)Nc1ccc(Oc2ccc(F)cc2)cc1)=C(O)C1CCCC1 [Compound 20] | 119 µM | 158 µM | 182 µM | > 400 µM | –
N#CC(C(=O)Nc1ccc(-c2ccccc2)cc1)=C(O)C1CC1 [Compound 24] | – | – | – | – | IC50 ([1]; Homo sapiens, read-out: LoVo (tested as described in Example 6, MTT test)): 6 µM; IC50 ([2]; Homo sapiens, A 172, read-out: A172 (tested as described in Example 6, MTT test)): 22 µM; IC50 ([3]; Homo sapiens, HUVEC, read-out: HUVEC (tested as described in Example 6, MTT test)): 74 µM; IC50 ([4]; Rattus norvegicus, C6, read-out: C 6 (tested as described in Example 6, MTT test)): 34 µM
Cc1cc(NC(=O)C(C#N)=C(O)C2CC2)ccc1C(F)(F)F [Compound 14] | – | – | – | – | IC50 ([1]; Table 4, read-out: LoVo (tested as described in Example 6, MTT test)): 61 µM; IC50 ([2]; Table 4, A172, read-out: A172 (tested as described in Example 6, MTT test)): 58 µM; IC50 ([3]; Table 4, HUVEC, read-out: HUVEC (tested as described in Example 6, MTT test)): 197 µM; IC50 ([4]; Table 4, C 6, read-out: C 6 (tested as described in Example 6, MTT test)): 7 µM
C#CCCC(O)=C(C#N)C(=O)Nc1ccc(C(F)(F)F)cc1 [Compound 1, N-(4-Trifluoromethylphenyl)-2-cyano-3-hydroxyhept-2-en-6-yne-carboxamide sodium salt] | 137 µM | 78 µM | 68 µM | 164 µM | IC50 [6]: 9.1 µM; IC50 [1, 16]: 137 µM; IC50 [2, 17]: 78 µM; IC50 [3, 18]: 164 µM; IC50 [4, 19]: 68 µM; IC50 [5]: 0.292 µM; IC50 ([7]; uridine 0 μM): 168 µM; IC50 ([7]; uridine 1000 μM): 278 µM
C=CCC(O)=C(C#N)C(=O)Nc1ccc(SC(F)(F)F)cc1 [Compound 19] | 171 µM | 118 µM | 32 µM | 135 µM | –
Cc1c(-c2ccc(-c3ccccc3F)cc2)nc2ccc(F)cc2c1C(=O)O [Brequinar, reference compound] | – | – | – | – | depletion of nucleotides ([8]; Schwartsmann et al., 1988): depletion of pyrimidine ribo- and deoxyribonukleotides, but not of purine nucleotides; depletion of dTTP and dCTP ([8]; relative to UTP and CTP, uridine addition): proportional to that of UTP and CTP and can be prevented by the addition of uridine; IC50 [6]: 1 µM; inhibition of growth of in vitro cell lines, reversal by nucleosides [9]: can be abolished by addition of uridine or cytidine, but not by deoxythymidine or deoxycytidine; IC50 [1, 16]: 0.388 µM; plasma uridine values ([10]; Peters et al., 1988): significantly lowers the plasma uridine values; correlation of in vivo uridine level effects with bone marrow and gastrointestinal tract toxicity [10]: correlated with the bone marrow and gastrointestinal tract toxicity; IC50 [2, 17]: 0.2 µM; IC50 [3, 18]: 9.4 µM; IC50 [4, 19]: 9 µM; IC50 ([7]; uridine 0 μM): 0.388 µM; IC50 ([7]; uridine 1000 μM): 129 µM; change of the IC50 value on the LoVo cell line on addition of increasing amounts of uridine ([7]; MTT test, in words): massive increase in the IC50 value
C=CCC(O)=C(C#N)C(=O)Nc1ccc(C(F)(F)F)cc1 [Compound 11] | 160 µM | 55 µM | 57 µM | 187 µM | –
N#CC(C(=O)Nc1ccc(Oc2ccc(F)cc2)cc1)=C(O)C1CCC1 [Compound 18] | 110 µM | 190 µM | 84 µM | 159 µM | –

More lines, in order of falling IC50 [1, 11], values ahead:

IC50 [1, 11] | IC50 [2, 12] | IC50 [4, 14] | SMILES | IC50 [3, 13] | further results
75 µM | 94 µM | 7 µM | N#CC(C(=O)Nc1ccc(C(F)(F)F)cn1)=C(O)C1CC1 [Compound 23] | > 400 µM | –
75 µM | 55 µM | 186 µM | C=CCCC(O)=C(C#N)C(=O)Nc1ccc(C(F)(F)F)cc1 [Compound 17] | 127 µM | –
55 µM | 43 µM | 6 µM | Cc1cc(NC(=O)C(C#N)=C(O)C2CC2)ccc1C(F)(F)F [Compound 12] | 322 µM | IC50 [5, 15]: 0.539 µM
37 µM | 37 µM | 11 µM | N#CC(C(=O)Nc1ccc(Br)cc1)=C(O)C1CC1 [Compound 7] | 267 µM | –
34 µM | 30 µM | 5 µM | N#CC(C(=O)Nc1ccc(C(F)(F)F)cc1)=C(O)C1CC1 [Compound 5] | 94 µM | –
27 µM | 63 µM | 69 µM | C=CCCC(O)=C(C#N)C(=O)Nc1ccc(C)c(C)c1 [Compound 21] | 339 µM | –
24 µM | 25 µM | 11 µM | N#CC(C(=O)Nc1ccc(Cl)cc1)=C(O)C1CC1 [Compound 6] | > 400 µM | –
21 µM | 13 µM | 2 µM | N#CC(C(=O)Nc1ccc(SC(F)(F)F)cc1)=C(O)C1CC1 [Compound 15] | 98 µM | –
21 µM | 25 µM | 4 µM | N#CC(C(=O)Nc1ccc(OC(F)(F)F)cc1)=C(O)C1CC1 [Compound 10] | 186 µM | –
15 µM | 32 µM | 13 µM | Cc1cc(NC(=O)C(C#N)=C(O)C2CC2)ccc1F [Compound 13] | > 400 µM | –
13 µM | 28 µM | 18 µM | N#CC(C(=O)Nc1ccc(Oc2ccccc2)cc1)=C(O)C1CC1 [Compound 8] | 138 µM | –
7 µM | 17 µM | 36 µM | Cc1cc(Cl)ccc1Oc1ccc(NC(=O)C(C#N)=C(O)C2CC2)cc1 [Compound 16] | 299 µM | –
